Data from patent US8106092B2, “Treatment of solid cancers” (priority 2004, dated 2012).

Legend:
B16-OVA tumors = test: SIINFEKL-specific CD8+ T-cell induction after topical PEP005 treatment of B16-OVA (IFNγ ELISPOT); type: in vivo, C57/BL6 mice
Description: (§1) B16 and B16 cells stably expressing ovalbumin (B16-OVA)were grown s.c. in C57BL/6 mice as described previously (Ogbourne et al, Cancer Res 64:2833-2839, 2004; Anraku et al, J Virol 76:3791-3799, 2002). Lung metastases were established as described (Zeh et al, J Immunol 162:989-994, 1999). Lewis lung-OVA (Nelson et al, J Immunol 166:5557-5566, 2001) were grown s.c. in C57BL/6 as described (Lenarczyk et al, Vaccine 22:963-974, 2004).
(§2) Tumors were treated by topical or intratumoral (i.t.) injection (using a 26 gauge needle) of (i) PEP0005 dissolved in acetone and then RPMI 1640 (final concentration of acetone 4%), or (ii) PEP005 formulated in PEG400.
(§3) Mouse splenocytes were analyzed by ex vivo IFNγ ELISPOT essentially as described previously (Le et al, Vaccine 19:4669-4675, 2001), but using MultiScreen-IP plates (Millipore) and 25 IU/ml of recombinant human IL-2 (Cetus).
Following three topical applications of PEP005 to established s.c. B16-OVA tumors on C57/BL6 mice, the number of SIINFEKL [SEQ ID NO:2]-specific CD8^+ T-cell induced were measured using IFNγ ELISPOT. As controls, the SIINFEKL [SEQ ID NO:2] specific CM^+ T-cell induced following (i) PEP005 treatment without tumor, (ii) mock treatment of B16 tumors and (iii) naïve mice (no PEP005 or tumor), were also tested.

Lewis lung-OVA tumors = test: Topical PEP005 treatment of Lewis lung-OVA tumors: tumor growth and SIINFEKL-specific CD8+ T-cell ELISPOT; type: in vivo, C57BL/6 mice
Description: as §1, §2, §3
Lewis lung-OVA tumors were established on five C57/B16 mice; when they had reached 10-20 mm^2, they were treated topically with PEP005. […] A parallel group of tumor-bearing mice (M7-12) were treated (vehicle only) and grew rapidly as expected with mean size±SD shown (FIG. 2, V(M7-12)). […] The sensitivity of this assay is about five spots per 10^6 splenocytes. […] Thus, again PEP005 treatment was associated with induction of anti-cancer CD8^+ T-cells.

B16 tumors = test: B16-specific antibody responses by ELISA after PEP005 treatment of B16 tumors; type: in vivo, C57BL/6 mice; settings: as early as d11; exceeding untreated animals with large tumor burdens, p=0.045 at 1/100 dilution
Description: FIG. 15 is a graphical representation showing antibody responses following PEP005 treatment of B16 tumors. B16 tumors growing on C57BL/6 mice were cured with PEP005 treatment after they had reached 30-60 mm^3, (one tumor per mouse) and B16-specific antibody titers were measured by standard ELISA on blood taken d11 post treatment initiation (n=6) (▪) or d135 post treatment initiation (n=5) (▴). Antibody titers for untreated animals whose tumors had reached 121.5±SD 20.1 (n=4) by d11 are also shown (X). Naïve mice (n=5) received no tumors (i).
Anti-tumor antibodies are known to have anti-cancer activity. […] B16 cells (10^6) were injected s.c. (1 tumor/mouse) into the flanks of female, 6-10 week-old mice and when tumors had reached ≈30-60 mm^3 they were treated with PEP005 as above. On d11 and 135 serum was taken and analyzed by ELISA for antibodies specific for B16. A group of B16 bearing animals which were not treated with PEP005 and a naïve group were also included. B16 cells were sonicated in carbonate buffer 9pH=9) and absorbed onto Immuno Maxisorp 96 well plates (Nunc) overnight and dried. The plates were blocked with 5% v/v FBS, 0.01% v/v Tween in PBS for 1 hour at 37° C. […]

[1] = topical PEP005, tumors 10-20 mm^2 at treatment

C/C=C(/C)C(=O)O[C@H]1C(C)=C[C@]23C(=O)[C@@H](C=C(CO)[C@@H](O)[C@]12O)[C@H]1[C@@H](C[C@H]3C)C1(C)C [PEP005, ingenol-3-angelate]
tumor bearing animals cured (B16-OVA tumors; B16-OVA tumors treated topically with PEP005): 4/7 | SIINFEKL-specific CD8+ T-cell responses (IFNγ ELISPOT) (B16-OVA tumors; mice receiving PEP005 without tumor, limit of detection five spots/10^6 splenocytes): no significant responses | SIINFEKL-specific CD8+ T-cell responses (IFNγ ELISPOT) (B16-OVA tumors; mice with B16-OVA tumors treated with three topical applications of PEP005 (cured mice, n=4), p=0.058 vs combined negative controls): some weak variable responses | SIINFEKL-specific CD8+ T-cell responses (Lewis lung-OVA tumors; animals with Lewis lung-OVA tumors treated topically with PEP005): a range of responses that correlated with the effectiveness of the treatment | SIINFEKL-specific CD8+ T-cell responses, mean ± SD for all mice (Lewis lung-OVA tumors; topical PEP005, mice without tumors, assay sensitivity about five spots): 6.3±9.8 spots per 10^6 splenocytes | animals showing a limited response of five treated (Lewis lung-OVA tumors; [1]): two | animals showing a partial response of five treated (Lewis lung-OVA tumors; [1]): two | tumors cured of the five tumors treated (Lewis lung-OVA tumors; [1]): one | B16-specific antibody responses (ELISA) (B16 tumors): clearly detectable antibody responses
